These results are taken from ChEMBL document CHEMBL3739356, “Combination of 4-anilinoquinazoline, arylurea and tertiary amine moiety to discover novel anticancer agents” (Bioorg Med Chem, 2016).

Active and inactive are the calls of the source. No cut-off for these calls is given here. Bounds are passed on as bounds.

One data set deals with A-431. Put plainly: Antiproliferative activity against human A431 cells after 72 hrs by MTT assay. It is filed as functional, cell-based. As to conditions: A-431, 72 h. On the technique in general: Formazan colour is commonly taken as a measure of viable cells.
For data set [1], the system named is A549. In words: Antiproliferative activity against human A549 cells after 72 hrs by MTT assay. It is filed as functional, cell-based. As to conditions: A549, 72 h.
Data set [2] has as its target Vascular endothelial growth factor receptor 2 (Homo sapiens, UniProt P35968). Put plainly: Inhibition of VEGFR-2 (unknown origin) assessed as ATP level by luminescence analysis.
Data set [3] addresses Epidermal growth factor receptor (Homo sapiens, UniProt P00533, L858R). In words: Inhibition of EGFR tyrosine kinase L858R mutant (unknown origin) assessed as ATP level by luminescence analysis. It is filed as protein assay.
Data set [4] deals with Epidermal growth factor receptor (Homo sapiens, UniProt P00533). In words: Inhibition of wild-type EGFR tyrosine kinase (unknown origin) assessed as ATP level by luminescence analysis.
Chain of Epidermal growth factor receptor (Homo sapiens, UniProt P00533) (P00533 whole entry): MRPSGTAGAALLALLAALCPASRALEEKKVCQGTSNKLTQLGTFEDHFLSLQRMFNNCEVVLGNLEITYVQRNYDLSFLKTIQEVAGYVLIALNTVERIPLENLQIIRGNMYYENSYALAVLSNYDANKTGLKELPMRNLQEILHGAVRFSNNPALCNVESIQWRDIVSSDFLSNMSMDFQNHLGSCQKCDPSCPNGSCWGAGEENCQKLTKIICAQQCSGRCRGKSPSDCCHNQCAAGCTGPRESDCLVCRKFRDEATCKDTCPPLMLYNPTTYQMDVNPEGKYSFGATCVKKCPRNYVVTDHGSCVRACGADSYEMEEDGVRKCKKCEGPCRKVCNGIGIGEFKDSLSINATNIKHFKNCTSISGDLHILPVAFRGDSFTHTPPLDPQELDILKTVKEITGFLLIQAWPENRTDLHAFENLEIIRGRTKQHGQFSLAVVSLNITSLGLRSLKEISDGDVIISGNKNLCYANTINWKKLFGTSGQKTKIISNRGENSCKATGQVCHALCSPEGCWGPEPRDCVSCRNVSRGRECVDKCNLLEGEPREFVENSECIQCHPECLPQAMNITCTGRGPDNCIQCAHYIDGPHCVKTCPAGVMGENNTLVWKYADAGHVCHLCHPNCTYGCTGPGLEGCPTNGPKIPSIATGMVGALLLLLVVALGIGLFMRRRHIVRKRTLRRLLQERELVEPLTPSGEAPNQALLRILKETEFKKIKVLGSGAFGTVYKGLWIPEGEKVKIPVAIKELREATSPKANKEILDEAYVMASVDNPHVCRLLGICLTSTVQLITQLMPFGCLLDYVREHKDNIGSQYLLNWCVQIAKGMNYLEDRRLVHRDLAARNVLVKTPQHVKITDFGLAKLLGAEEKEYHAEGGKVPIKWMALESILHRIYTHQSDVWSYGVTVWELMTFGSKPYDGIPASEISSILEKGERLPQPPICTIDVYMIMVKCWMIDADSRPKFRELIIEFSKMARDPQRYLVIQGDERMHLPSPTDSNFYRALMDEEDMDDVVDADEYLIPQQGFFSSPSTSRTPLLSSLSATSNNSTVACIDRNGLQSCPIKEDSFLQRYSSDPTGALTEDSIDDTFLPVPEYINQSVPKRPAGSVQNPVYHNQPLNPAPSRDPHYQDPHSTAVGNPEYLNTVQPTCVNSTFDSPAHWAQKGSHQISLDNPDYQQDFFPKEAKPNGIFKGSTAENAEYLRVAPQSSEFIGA
Data set [5] deals with A549. In words: Anticancer activity against human A549 cells xenografted in nude BALB/C mouse assessed as decrease in tumor volume at 50 mg/kg, po qd for 12 days. In kind it is functional, organism-based. On the technique in general: Xenograft models place foreign cells or tissue in a host animal.
A further data set deals with Mus musculus. In words: Toxicity in nude BALB/C mouse assessed as weight loss at 50 mg/kg, po qd for 12 days. In kind it is organism-based. As to conditions: in vivo, 288 h.

Chain of Epidermal growth factor receptor (Homo sapiens, UniProt P00533, L858R) (P00533 25-1210 L858R limits assumed): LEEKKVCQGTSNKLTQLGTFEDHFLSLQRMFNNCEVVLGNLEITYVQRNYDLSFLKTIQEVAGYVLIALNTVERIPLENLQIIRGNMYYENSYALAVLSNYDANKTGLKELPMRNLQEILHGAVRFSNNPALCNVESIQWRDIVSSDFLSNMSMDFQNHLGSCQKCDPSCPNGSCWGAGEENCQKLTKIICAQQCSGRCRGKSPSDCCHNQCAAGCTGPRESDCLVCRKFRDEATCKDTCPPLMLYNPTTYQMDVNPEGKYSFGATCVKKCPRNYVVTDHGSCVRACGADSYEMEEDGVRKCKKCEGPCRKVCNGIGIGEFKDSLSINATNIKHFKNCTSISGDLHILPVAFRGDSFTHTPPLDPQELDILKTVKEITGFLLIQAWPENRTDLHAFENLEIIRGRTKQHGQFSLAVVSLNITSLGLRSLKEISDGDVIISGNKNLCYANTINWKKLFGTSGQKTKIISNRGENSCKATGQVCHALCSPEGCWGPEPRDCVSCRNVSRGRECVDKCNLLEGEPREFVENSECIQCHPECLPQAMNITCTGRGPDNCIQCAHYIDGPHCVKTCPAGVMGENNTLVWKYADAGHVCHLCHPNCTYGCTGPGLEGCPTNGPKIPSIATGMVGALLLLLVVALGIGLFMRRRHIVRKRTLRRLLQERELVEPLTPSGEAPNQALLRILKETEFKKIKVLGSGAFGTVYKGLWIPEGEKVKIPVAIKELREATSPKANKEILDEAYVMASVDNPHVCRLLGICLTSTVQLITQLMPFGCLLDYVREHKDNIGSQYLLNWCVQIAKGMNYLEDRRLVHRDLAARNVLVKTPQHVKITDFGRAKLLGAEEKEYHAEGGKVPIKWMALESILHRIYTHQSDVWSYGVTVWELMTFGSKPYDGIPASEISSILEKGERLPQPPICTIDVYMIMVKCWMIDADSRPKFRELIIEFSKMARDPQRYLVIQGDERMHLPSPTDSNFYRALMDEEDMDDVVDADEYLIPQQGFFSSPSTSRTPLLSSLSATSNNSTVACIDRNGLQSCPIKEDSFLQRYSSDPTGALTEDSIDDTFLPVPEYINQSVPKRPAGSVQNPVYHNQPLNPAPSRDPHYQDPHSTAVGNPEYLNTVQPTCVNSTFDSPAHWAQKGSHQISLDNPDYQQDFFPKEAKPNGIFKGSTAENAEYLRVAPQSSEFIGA
Chain of Vascular endothelial growth factor receptor 2 (P35968 whole entry): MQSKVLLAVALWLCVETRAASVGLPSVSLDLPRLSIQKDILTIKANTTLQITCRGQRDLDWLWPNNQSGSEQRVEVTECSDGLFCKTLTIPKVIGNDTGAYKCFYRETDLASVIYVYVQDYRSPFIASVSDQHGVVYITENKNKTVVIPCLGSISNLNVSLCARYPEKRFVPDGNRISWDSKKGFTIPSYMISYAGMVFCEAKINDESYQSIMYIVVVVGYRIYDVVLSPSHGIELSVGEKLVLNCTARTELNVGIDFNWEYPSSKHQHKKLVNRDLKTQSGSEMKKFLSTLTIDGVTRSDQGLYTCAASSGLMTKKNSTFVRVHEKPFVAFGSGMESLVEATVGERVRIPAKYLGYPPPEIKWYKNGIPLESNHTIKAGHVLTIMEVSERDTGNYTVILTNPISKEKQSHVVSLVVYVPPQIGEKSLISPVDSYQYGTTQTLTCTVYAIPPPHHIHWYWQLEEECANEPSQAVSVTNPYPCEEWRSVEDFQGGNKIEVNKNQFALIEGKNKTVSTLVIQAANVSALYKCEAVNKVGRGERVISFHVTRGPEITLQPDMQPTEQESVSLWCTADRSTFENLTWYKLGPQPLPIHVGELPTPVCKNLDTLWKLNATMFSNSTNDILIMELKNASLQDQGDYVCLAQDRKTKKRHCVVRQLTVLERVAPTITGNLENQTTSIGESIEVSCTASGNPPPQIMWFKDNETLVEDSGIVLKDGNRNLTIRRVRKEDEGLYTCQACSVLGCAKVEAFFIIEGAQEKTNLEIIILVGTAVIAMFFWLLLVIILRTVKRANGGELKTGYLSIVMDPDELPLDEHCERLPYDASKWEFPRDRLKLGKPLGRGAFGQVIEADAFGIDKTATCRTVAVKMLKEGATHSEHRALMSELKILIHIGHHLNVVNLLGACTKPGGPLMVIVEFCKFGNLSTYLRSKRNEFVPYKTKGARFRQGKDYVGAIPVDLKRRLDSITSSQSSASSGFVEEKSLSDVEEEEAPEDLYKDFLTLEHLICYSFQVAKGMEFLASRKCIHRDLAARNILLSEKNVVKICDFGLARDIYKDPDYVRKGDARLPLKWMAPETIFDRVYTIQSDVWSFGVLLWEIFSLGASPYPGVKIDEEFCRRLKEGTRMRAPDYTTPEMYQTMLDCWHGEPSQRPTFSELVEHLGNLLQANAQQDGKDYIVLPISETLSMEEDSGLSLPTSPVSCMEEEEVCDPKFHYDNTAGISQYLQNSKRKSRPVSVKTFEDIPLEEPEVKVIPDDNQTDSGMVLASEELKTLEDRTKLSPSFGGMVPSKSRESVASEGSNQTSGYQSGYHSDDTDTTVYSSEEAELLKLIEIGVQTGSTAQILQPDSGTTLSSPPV

For orientation: IC50 means the concentration needed to halve the response being measured. On to `C#Cc1cccc(Nc2ncnc3ccc(NC(=O)Nc4ccc(CN(CC)CC)cc4)cc23)c1`, for which the IC50 with A-431 came out at 1.24 µM; with A549 [1], 2.25 µM.

As for `CN1CCN(Cc2ccc(NC(=O)Nc3ccc4ncnc(Nc5ccc(OCc6cccc(F)c6)c(Cl)c5)c4c3)cc2)CC1`, the IC50 was greater than 1 µM in data set [2], 0.64 µM in the data set on A-431 and 0.9 µM with A549 [1].

As to `O=C(Nc1ccc(CN2CCCCC2)cc1)Nc1ccc2ncnc(Nc3cccc(C(F)(F)F)c3)c2c1`, the IC50 in the data set with A-431 is 1.55 µM; with A549 [1], 1.05 µM; in data set [3] it was 0.0105 µM; in data set [4], 0.005 µM.

As to `CCN(CC)Cc1ccc(NC(=O)Nc2ccc3ncnc(Nc4cccc(C(F)(F)F)c4)c3c2)cc1`, the IC50 stood at 3.98 µM in the data set with A-431 and 2.07 µM in the data set on A549 [1].

Take `CN1CCN(c2ccc(NC(=O)Nc3ccc4ncnc(Nc5cccc(C(F)(F)F)c5)c4c3)cc2)CC1`: the IC50 in the data set on A-431 came to 2.2 µM; with A549 [1], 2.76 µM.

As for `C[C@@H](Nc1ncnc2ccc(NC(=O)Nc3ccc(CN4CCN(C)CC4)cc3)cc12)c1ccccc1`, the IC50 with A-431 and with A549 [1] was greater than 10 µM in each case.

`COC(=O)c1cccc(Nc2ncnc3ccc(NC(=O)Nc4ccc(CN5CCN(C)CC5)cc4)cc23)c1`: the figures for the IC50 with A-431 and with A549 [1] were 5.63 µM and greater than 10 µM, respectively.

For the molecule `C#Cc1cccc(Nc2ncnc3ccc(NC(=O)Nc4ccc(CN5CCOCC5)cc4)cc23)c1`, the IC50 in the data set on A-431 and in the data set on A549 [1] was greater than 10 µM each time.

As to `CN1CCN(Cc2ccc(NC(=O)Nc3ccc4ncnc(Nc5cccc(C(F)(F)F)c5)c4c3)cc2)CC1`, the IC50 in the data set on A-431 came out at 2.41 µM; in the data set with A549 [1], 1.65 µM.

For the molecule `O=C(Nc1cccc(CN2CCCCC2)c1)Nc1ccc2ncnc(Nc3cccc(C(F)(F)F)c3)c2c1`, the values for the IC50 in the data set with A-431 and in the data set on A549 [1] were 1.33 µM and 1.06 µM, respectively.

`COc1cc2ncnc(Nc3ccc(F)c(Cl)c3)c2cc1OCCCN1CCOCC1` [GEFITINIB]: the result with A549 [5] was Active. The Activity entry in the data set on Mus musculus is on record as “Non-toxic”.

For the molecule `COc1ccc(NC(=O)Nc2ccc3ncnc(Nc4cccc(C(F)(F)F)c4)c3c2)cc1`, the IC50 with A-431 stood at 4.95 µM; with A549 [1], 9.47 µM.

For the molecule `C#Cc1cccc(Nc2ncnc3ccc(NC(=O)Nc4ccc(CN5CCN(C)CC5)cc4)cc23)c1`, the IC50 in the data set with A-431 is 2.81 µM; in the data set on A549 [1] it was 5.17 µM.

In the case of `CCN(CC)c1ccc(NC(=O)Nc2ccc3ncnc(Nc4cccc(C(F)(F)F)c4)c3c2)cc1`, the IC50 amounted to 6.46 µM in the data set with A-431 and 3.52 µM with A549 [1].

For the molecule `O=C(Nc1ccc(C(=O)N2CCOCC2)cc1)Nc1ccc2ncnc(Nc3ccc(F)c(Cl)c3)c2c1`, the IC50 with A-431 and with A549 [1] was greater than 10 µM in each case.

With `CN(C)Cc1ccc(NC(=O)Nc2ccc3ncnc(Nc4cccc(C(F)(F)F)c4)c3c2)cc1`, the IC50 in the data set on A-431 was 1.03 µM; with A549 [1], 1.12 µM.

With `O=C(Nc1ccc(CN2CCOCC2)cc1)Nc1ccc2ncnc(Nc3cccc(C(F)(F)F)c3)c2c1`, the IC50 came to 8.49 µM with A-431 and 4.03 µM in the data set with A549 [1].

With `CN1CCN(Cc2ccc(NC(=O)Nc3ccc4ncnc(Nc5cccc(C(=O)N6CCCC6)c5)c4c3)cc2)CC1`, the IC50 in the data set with A-431 and in the data set on A549 [1] was greater than 10 µM throughout.

With `CN1CCN(C(=O)c2ccc(NC(=O)Nc3ccc4ncnc(Nc5ccc(OCc6cccc(F)c6)c(Cl)c5)c4c3)cc2)CC1`, the figures for the IC50 in the data set with A-431 and with A549 [1] were greater than 10 µM and 7.39 µM, respectively.

Turning to `Cc1ccc(NC(=O)Nc2ccc3ncnc(Nc4cccc(C(F)(F)F)c4)c3c2)cc1`, the IC50 with A-431 is greater than 10 µM; in the data set on A549 [1] it was 4.14 µM.

Take `CN1CCN(CCNC(=O)Nc2ccc3ncnc(Nc4cccc(C(F)(F)F)c4)c3c2)CC1`: the IC50 with A-431 and with A549 [1] was greater than 10 µM in each case.

In the case of `C#Cc1cccc(Nc2ncnc3ccc(NC(=O)Nc4ccc(C(=O)N5CCN(C)CC5)cc4)cc23)c1`, the IC50 in the data set with A-431 and in the data set with A549 [1] was greater than 10 µM each time.

Turning to `CN1CCN(Cc2ccc(NC(=O)Nc3ccc4ncnc(Nc5ccc(F)c(Cl)c5)c4c3)cc2)CC1`, the IC50 came out at 4 µM in the data set on A-431 and 3.48 µM in the data set on A549 [1].

Consider `CN1CCN(C(=O)c2ccc(NC(=O)Nc3ccc4ncnc(Nc5cccc(C(F)(F)F)c5)c4c3)cc2)CC1`, for which the IC50 with A-431 was greater than 10 µM; in the data set on A549 [1], 8.31 µM.

As for `COc1ccc(Nc2ncnc3ccc(NC(=O)Nc4ccc(CN5CCN(C)CC5)cc4)cc23)cc1Cl`, the IC50 with A-431 is 2.01 µM; with A549 [1], 3.57 µM.

As for `CN1CCN(C(=O)c2ccc(NC(=O)Nc3ccc4ncnc(Nc5ccc(F)c(Cl)c5)c4c3)cc2)CC1`, the IC50 in the data set with A-431 and with A549 [1] was greater than 10 µM in each case.

Take `C[C@@H](Nc1ncnc2ccc(NC(=O)NCCN3CCN(C)CC3)cc12)c1ccccc1`: the IC50 in the data set with A-431 and in the data set on A549 [1] was greater than 10 µM each time.

In the case of `O=C(Nc1ccc(CN2CCCC2)cc1)Nc1ccc2ncnc(Nc3cccc(C(F)(F)F)c3)c2c1`, the 50% inhibitory concentration (IC50) was found to be 0.565 µM in data set [2]; 1.36 µM in the data set with A-431; 0.83 µM in the data set with A549 [1]; 0.0115 µM in data set [3]; 0.0041 µM in data set [4]. The result with A549 [5] was Active. Also, the Activity result in the data set with Mus musculus is “Non-toxic”.

As to `O=C(Nc1cccc(CN2CCCC2)c1)Nc1ccc2ncnc(Nc3cccc(C(F)(F)F)c3)c2c1`, the IC50 was determined as 1.23 µM in the data set on A-431 and 0.86 µM with A549 [1].

For `O=C(Nc1ccccc1)Nc1ccc2ncnc(Nc3cccc(C(F)(F)F)c3)c2c1`, the IC50 in the data set with A-431 and with A549 [1] was greater than 10 µM throughout.

As for `CN1CCN(Cc2ccc(NC(=O)Nc3ccc4ncnc(Nc5ccc(F)c(F)c5)c4c3)cc2)CC1`, the IC50 in the data set on A-431 and with A549 [1] was greater than 10 µM each time.
